This is an account of results in patent publication US10865207B2, “Compounds for imaging Tau protein aggregates” (AC IMMUNE S.A., priority 2016, dated 2020).

As usually defined, the IC50 is the concentration that inhibits the measured activity by half.

Entries after “also recorded” stand apart in the source; their conditions may differ. Marks after values point to notes of the source that are not given here.

In series [1] the target is T1, Tau in PiD brain sections (Homo sapiens, UniProt P10636).
T1 construct: frozen human brain slices; from tissue; host or cells: human PiD brain slices
Kind of series: Autoradiography on human PiD brain slices. The format is binding. As for the experimental part: (§1) 18 micron thick frozen human brain slices and 6 micron thick human FFPE brain slices were examined via autoradiography. Brain sections were equilibrated for at least 1 h in 1×PBS solution prior to use in the experiment. Each brain section was covered with a solution of the ^18F-labeled tracer (200 Bq/μl, 500 μl) in 1×PBS. For blocking experiments with the corresponding ^19F-compound, an excess of the blocking compound (10 μM) was mixed with the ^18F-compound. The brain sections were allowed to incubate with the tracer solution at room temperature for 1 h, drained afterwards and placed in a slide holder. The slides were then washed sequentially with 1×PBS for 1 min; 70% EtOH in 1×PBS for 2 min; 30% EtOH in 1×PBS for 2 min; and 1×PBS for 1 min. The slides were allowed to air-dry before being placed on Fuji imaging plates […] for overnight exposure. The imaging plates were scanned and the signal was measured using Fuji software to produce an autoradiographic image of the brain section.

Series [2] in a line: Autoradiography on healthy control (HC) human brain slices. The format is binding. As for the experimental part: as §1
For series [3], the system named is Tau (AD brain homogenate vs healthy control brain homogenate). Briefly: Tracer signal-to-noise ratio, AD brain homogenate vs healthy control brain homogenate. The format is binding, human. More on the design: High signal to noise (grade), AD brain / HC brain homogenate / High signal to noise (further homogenates) (grade): key to the marks not given beside the values.

The test system of the next series is Tau pathology. Briefly: Human imaging study (PET in AD subjects and non-demented controls). The format is in vivo. As to the method:
In a clinical trial, subjects with AD as well as non-demented controls (NDC) underwent dynamic PET imaging for over 3 h following 370 MBq bolus injection of ^18F-4.

The target of series [4] is T2, Tau in PSP brain sections (Homo sapiens, UniProt P10636).
T2 construct: frozen human brain slices; from tissue; host or cells: human PSP brain slices
Kind of series: Autoradiography on human PSP brain slices. The format is binding. As for the experimental part: as §1

For another series, the system named is Tau in AD brain sections. Briefly: Autoradiography on human AD brain slices. The format is binding. As to the method:
as §1

Series [5] relates to Tau (AD brain vs mouse brain homogenate). Kind of series: Tracer signal ratio, AD brain vs mouse brain homogenate. Set-up: High signal to noise (grade), AD brain / mouse brain homogenate: key: −: poor; ∘: moderate; +: good; ++: very good; +++: excellent. The format is binding, human.
For a further series, the target named is T3, MAO A (Homo sapiens, UniProt P21397).
T3 construct: 20 μg of human brain homogenate (without AD pathology); from tissue; host or cells: human brain homogenate without AD pathology
T3 sequence (P21397 1-527): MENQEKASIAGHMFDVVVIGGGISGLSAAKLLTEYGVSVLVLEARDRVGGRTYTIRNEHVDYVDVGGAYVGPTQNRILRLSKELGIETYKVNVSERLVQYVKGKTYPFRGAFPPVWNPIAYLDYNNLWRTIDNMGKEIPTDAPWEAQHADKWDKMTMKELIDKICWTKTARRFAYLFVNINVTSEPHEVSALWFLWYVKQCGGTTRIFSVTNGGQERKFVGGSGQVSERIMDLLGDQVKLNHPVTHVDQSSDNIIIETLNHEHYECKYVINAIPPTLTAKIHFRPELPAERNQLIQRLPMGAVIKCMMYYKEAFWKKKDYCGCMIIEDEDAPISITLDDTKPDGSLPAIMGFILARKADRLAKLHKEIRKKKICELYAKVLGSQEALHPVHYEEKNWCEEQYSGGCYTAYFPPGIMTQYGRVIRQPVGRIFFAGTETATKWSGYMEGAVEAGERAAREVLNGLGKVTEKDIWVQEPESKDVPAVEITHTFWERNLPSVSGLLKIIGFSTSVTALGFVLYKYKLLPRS
Kind of series: MAO A FEH competition assay in human HC brain homogenate. The format is binding. Set-up: Low affinity to MAO A (grade), HC homogenate: key: −: poor; ∘: moderate; +: good; ++: very good; +++: excellent. The following applies: for IC50: human control brain homogenate, FEH competition, fluorine-19 derivatives. As to the method:
20 μg of human brain homogenate (without AD pathology) was incubated with a dilution series of each test compound (1000 to 0.06 nM) in the presence of 800 Bq of ^18F-labeled MAO-A binder ([^18F]fluoroethyl harmine, FEH). The samples were shaken at 110 rpm for 45 min at 37° C. Samples were then filtered through GF/B 96 well filter plates and washed twice with 300 μL assay buffer (PBS containing 0.1% BSA and 2% DMSO). Thereafter, filter plates were sealed and a Fuji Film Imaging Plate (BAS-SR2025) was placed on top. The imaging plate was analyzed after overnight exposition using a Fuji Film BAS-5000. Non-specific signal was determined with samples containing ^18F-labeled FEH in the presence of assay buffer without brain substrate and competitor. […] The unblocked ^18F-labeled FEH signal was defined as total binding. IC50 values were calculated by Prism V6 (GraphPad) setting total binding to 100%.

Where [6] appears, read: further AD brain homogenate vs HC brain homogenate.

T1 sequence (P10636 1-410 isoform P10636-5): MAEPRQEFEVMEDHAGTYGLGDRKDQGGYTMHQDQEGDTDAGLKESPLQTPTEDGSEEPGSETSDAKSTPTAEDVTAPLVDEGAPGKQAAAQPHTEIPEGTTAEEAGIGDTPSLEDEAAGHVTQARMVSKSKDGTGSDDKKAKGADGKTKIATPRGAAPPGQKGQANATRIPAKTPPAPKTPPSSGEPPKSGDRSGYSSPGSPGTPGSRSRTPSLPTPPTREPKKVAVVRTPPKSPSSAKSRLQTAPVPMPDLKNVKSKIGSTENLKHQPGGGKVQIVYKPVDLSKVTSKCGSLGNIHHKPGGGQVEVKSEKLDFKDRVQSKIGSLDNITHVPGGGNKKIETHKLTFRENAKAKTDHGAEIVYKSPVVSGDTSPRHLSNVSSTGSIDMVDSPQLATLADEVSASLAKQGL
T2 sequence (P10636 1-441 isoform P10636-8): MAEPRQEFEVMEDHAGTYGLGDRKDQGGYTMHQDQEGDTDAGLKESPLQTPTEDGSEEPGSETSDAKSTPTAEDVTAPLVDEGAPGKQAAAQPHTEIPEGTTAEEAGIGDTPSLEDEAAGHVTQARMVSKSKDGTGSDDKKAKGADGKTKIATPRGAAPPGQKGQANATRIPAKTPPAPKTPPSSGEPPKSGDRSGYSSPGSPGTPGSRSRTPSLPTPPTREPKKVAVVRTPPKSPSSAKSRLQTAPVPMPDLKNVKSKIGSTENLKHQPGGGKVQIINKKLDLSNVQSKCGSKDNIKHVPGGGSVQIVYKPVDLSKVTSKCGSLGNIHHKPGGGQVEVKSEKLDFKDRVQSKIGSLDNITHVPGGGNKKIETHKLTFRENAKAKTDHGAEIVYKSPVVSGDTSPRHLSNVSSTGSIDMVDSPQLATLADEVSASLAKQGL

Consider `[18F]c1ncccc1-c1ccc2c(n1)[nH]c1ccncc12` [Compound ^18F-4], for which the “Autoradiography signal in PiD brain sections (in words)” value in series [1] is recorded as “strong signal”. The “Binding to PiD brain slices by autoradiography (grade)” value in series [1] (in house data) was “+++^a)”. The “Autoradiography signal in healthy control (HC) sections (in words)” value in series [2] is listed as “no specific signal was visible”. The “fold higher signal to noise ratio than 18F-1” value in series [3] (AD vs HC brain homogenate) is given as 7.7 fold. Further, in series [3] (Table 1), the “High signal to noise (further homogenates) (grade)” value is listed as “+++” and the “High signal to noise (grade), AD brain / HC brain homogenate” value was “+++”. For the same molecule, in series [3] (setting [6]), the “fold higher signal to noise ratio than 18F-1” value is given as 7.2-11 fold and the “fold higher signal to noise ratio than 18F-2” value is 3.7-4.0 fold. Besides, in the series on Tau pathology (370 MBq bolus, dynamic PET), the “brain uptake in human subjects (in words)” value is reported as “good brain uptake” and the “washout from non-target brain regions in human subjects (in words)” value is reported as “fast washout”. Moreover, the “uptake in AD subjects (in words)” value with Tau pathology (AD subjects) was “focal asymmetric uptake was evident in temporal, parietal and frontal lobes”. Also, in the series on Tau pathology (NDC subjects), the “uptake in choroid plexus, basal ganglia, striatum, amygdala, meninges in non-demented controls (in words)” value is “no increased uptake”. Also, the “Autoradiography signal in PSP brain sections (in words)” value in series [4] is reported as “strong signal”. The “Binding to PSP brain slices by autoradiography (grade)” value in series [4] (in house data) is reported as “+++^a)”. The “Autoradiography signal in AD brain sections (in words)” value with Tau in AD brain sections (blockable with excess cold compound) was “strong punctated staining; also recorded: Specific binding”. For the same molecule, in the series with Tau in AD brain sections (in house data), the “Binding to AD brain (Braak stage 1/3) by autoradiography (grade)” value is “+++^a)” and the “Binding to AD brain (Braak stage 5/6) by autoradiography (grade)” value is on record as “+++^a)”. The “Ratio of tracer signal AD brain / signal in mouse brain homogenate” value in series [5] (18F tracer) is 15.1^a). Besides, the “fold higher signal to noise ratio than 18F-1” value in series [5] (AD brain homogenate vs whole mouse brain homogenate) stood at 6.9 fold. In addition, the “High signal to noise (grade), AD brain / mouse brain homogenate” value in series [5] (Table 1) is “+++”. Moreover, at MAO A (HC brain homogenate), the “fold higher MAO A IC50 than compound 18F-1” value worked out at 106 fold and the “fold higher MAO A IC50 than compound 18F-2” value came to 5 fold. Moreover, at MAO A (Table 1), the “Low affinity to MAO A (grade), HC homogenate” value is given as “++”. Further, at MAO A, the IC50 was found to be 530 nM.

In turn, `Fc1ncccc1-c1ccc2c(n1)[nH]c1ccncc12` [Compound F-4] registered an IC50 on MAO A of 530 nM.
